Measurements taken from patent US20110295343A1, “NEAR-INFRARED ELECTROMAGNETIC MODIFICATION OF CELLULAR STEADY-STATE MEMBRANE POTENTIALS” (priority 2008, published 2011).
Where “and” joins values, the source holds several entries; their conditions need not be identical. Equal values may be shown once.

Tested on: MRSA (ATCC BAA-43)
Test: MRSA/antimicrobial potentiation, CFU on TSB agar with and without antibiotic after laser (Example XXII, Experiments 1-4)
Assay type: cell-based, Staphylococcus aureus subsp. aureus
Settings: for CFU/ml / AVG / CFU: agar with 30 μg/ml methicillin; for AVG: mean of plates; for CFU: replicate plates; for Meth Effect: CFU with methicillin / without; for Laser Effect (+Meth) / Laser Effect (+M): both on 30 μg/ml methicillin
Protocol: Four separate experiments have been performed.
Eight different laser dosages were used to treat a saline-suspension of logarithmically growing MRSA, labeled A1 to H1.
The treated and a control untreated suspension were diluted and plated in triplicate on trypic soy agar with or without 30 μg/ml methicillin After 24 hrs of growth at 37° C. colonies were counted.
CFU (colony forming units) were compared between the plates with and without methicillin for both control (untreated) and treated MRSA.
The treated and a control untreated suspension were diluted and plated in triplicate on trypic soy agar with or without 30 μg/mlmethicillin.
After 24 hrs of growth at 37° C. colonies were counted.
The treated and a control untreated suspension were diluted and plated in pentuplicate on trypic soy agar with or without 30 μg/ml methicillin.

COc1cccc(OC)c1C(=O)N[C@@H]1C(=O)N2[C@@H]1SC(C)(C)[C@@H]2C(=O)O [Methicillin]
CFU/ml (Exp#2 C2 Cont (no laser)): 1.66E+08 CFU/ml | AVG (Exp#2 C2 Cont (no laser)): 55.3 CFU | CFU (Exp#2 C2 Cont (no laser)): 42 CFU and 71 CFU and 53 CFU | Meth Effect (Exp#2 C2 Exp (laser treated)): 0.31 | CFU/ml (Exp#2 C2 Exp (laser treated)): 3.80E+07 CFU/ml | AVG (Exp#2 C2 Exp (laser treated)): 12.7 CFU | CFU (Exp#2 C2 Exp (laser treated)): 16 CFU and 12 CFU and 10 CFU | Laser Effect (+Meth) (Exp#2 D2, laser Exp / Cont): 0.04 | Meth Effect (Exp#2 D2 Cont (no laser)): 0.61 | CFU/ml (Exp#2 D2 Cont (no laser)): 1.56E+08 CFU/ml | AVG (Exp#2 D2 Cont (no laser)): 52 CFU | CFU (Exp#2 D2 Cont (no laser)): 20 CFU and 65 CFU and 71 CFU | Meth Effect (Exp#2 D2 Exp (laser treated)): 0.25 | CFU/ml (Exp#2 D2 Exp (laser treated)): 7.00E+06 CFU/ml | AVG (Exp#2 D2 Exp (laser treated)): 2.3 CFU | CFU (Exp#2 D2 Exp (laser treated)): 5 CFU and 1 CFU (2×) | Laser Effect (+Meth) (Exp#2 E2, laser Exp / Cont): 0.04 | Meth Effect (Exp#2 E2 Cont (no laser)): 1.04 | CFU/ml (Exp#2 E2 Cont (no laser)): 1.87E+08 CFU/ml | AVG (Exp#2 E2 Cont (no laser)): 62.3 CFU | CFU (Exp#2 E2 Cont (no laser)): 68 CFU and 66 CFU and 53 CFU | Meth Effect (Exp#2 E2 Exp (laser treated)): 0.24 | CFU/ml (Exp#2 E2 Exp (laser treated)): 8.00E+06 CFU/ml | AVG (Exp#2 E2 Exp (laser treated)): 2.7 CFU | CFU (Exp#2 E2 Exp (laser treated)): 2 CFU (2×) and 4 CFU | Laser Effect (+Meth) (Exp#2 F2, laser Exp / Cont): 0.22 | Meth Effect (Exp#2 F2 Cont (no laser)): 0.81 | CFU/ml (Exp#2 F2 Cont (no laser)): 2.13E+08 CFU/ml | AVG (Exp#2 F2 Cont (no laser)): 71 CFU | CFU (Exp#2 F2 Cont (no laser)): 62 CFU and 64 CFU and 87 CFU | Meth Effect (Exp#2 F2 Exp (laser treated)): 0.38 | CFU/ml (Exp#2 F2 Exp (laser treated)): 4.70E+07 CFU/ml | AVG (Exp#2 F2 Exp (laser treated)): 15.7 CFU | CFU (Exp#2 F2 Exp (laser treated)): 13 CFU and 15 CFU and 19 CFU | Laser Effect (+Meth) (Exp#2 G2, laser Exp / Cont): 0.1 | Meth Effect (Exp#2 G2 Cont (no laser)): 1.04 | CFU/ml (Exp#2 G2 Cont (no laser)): 2.50E+08 CFU/ml | AVG (Exp#2 G2 Cont (no laser)): 83.3 CFU | CFU (Exp#2 G2 Cont (no laser)): 75 CFU and 92 CFU and 83 CFU | Meth Effect (Exp#2 G2 Exp (laser treated)): 0.3 | CFU/ml (Exp#2 G2 Exp (laser treated)): 2.50E+07 CFU/ml | AVG (Exp#2 G2 Exp (laser treated)): 8.3 CFU | CFU (Exp#2 G2 Exp (laser treated)): 10 CFU and 7 CFU and 8 CFU | Laser Effect (+Meth) (Exp#2 H2, laser Exp / Cont): 0.17 | Meth Effect (Exp#2 H2 Cont (no laser)): 0.73 | CFU/ml (Exp#2 H2 Cont (no laser)): 2.30E+08 CFU/ml | AVG (Exp#2 H2 Cont (no laser)): 76.7 CFU | CFU (Exp#2 H2 Cont (no laser)): 76 CFU and 72 CFU and 82 CFU | Meth Effect (Exp#2 H2 Exp (laser treated)): 0.45 | CFU/ml (Exp#2 H2 Exp (laser treated)): 3.80E+07 CFU/ml | AVG (Exp#2 H2 Exp (laser treated)): 12.7 CFU | CFU (Exp#2 H2 Exp (laser treated)): 13 CFU (2×) and 12 CFU | Laser Effect (+M) (Exp#3 A3, laser Exp / Cont): 0.33 | Meth Effect (Exp#3 A3 Cont (no laser)): 1.03 | CFU/ml (Exp#3 A3 Cont (no laser)): 1.45E+08 CFU/ml | AVG (Exp#3 A3 Cont (no laser)): 48.4 CFU | Meth Effect (Exp#3 A3 Exp (laser treated)): 0.52 | CFU/ml (Exp#3 A3 Exp (laser treated)): 4.86E+07 CFU/ml | AVG (Exp#3 A3 Exp (laser treated)): 16.2 CFU | Laser Effect (+M) (Exp#3 B3, laser Exp / Cont): 0.27 | Meth Effect (Exp#3 B3 Cont (no laser)): 0.99 | CFU/ml (Exp#3 B3 Cont (no laser)): 2.14E+08 CFU/ml | AVG (Exp#3 B3 Cont (no laser)): 71.4 CFU | Meth Effect (Exp#3 B3 Exp (laser treated)): 0.61 | CFU/ml (Exp#3 B3 Exp (laser treated)): 5.70E+07 CFU/ml | AVG (Exp#3 B3 Exp (laser treated)): 19 CFU | Laser Effect (+M) (Exp#3 C3, laser Exp / Cont): 0.35 | Meth Effect (Exp#3 C3 Cont (no laser)): 1.01 | CFU/ml (Exp#3 C3 Cont (no laser)): 1.75E+08 CFU/ml | AVG (Exp#3 C3 Cont (no laser)): 58.4 CFU | Meth Effect (Exp#3 C3 Exp (laser treated)): 0.53 | CFU/ml (Exp#3 C3 Exp (laser treated)): 6.06E+07 CFU/ml | AVG (Exp#3 C3 Exp (laser treated)): 20.2 CFU | Laser Effect (+M) (Exp#3 D3, laser Exp / Cont): 0.07 | Meth Effect (Exp#3 D3 Cont (no laser)): 1.01 | CFU/ml (Exp#3 D3 Cont (no laser)): 1.54E+08 CFU/ml | AVG (Exp#3 D3 Cont (no laser)): 51.2 CFU | Meth Effect (Exp#3 D3 Exp (laser treated)): 0.39 | CFU/ml (Exp#3 D3 Exp (laser treated)): 1.08E+07 CFU/ml | AVG (Exp#3 D3 Exp (laser treated)): 3.6 CFU | Laser Effect (+M) (Exp#3 E3, laser Exp / Cont): 0.47 | Meth Effect (Exp#3 E3 Cont (no laser)): 0.92 | CFU/ml (Exp#3 E3 Cont (no laser)): 1.52E+08 CFU/ml | AVG (Exp#3 E3 Cont (no laser)): 50.6 CFU | Meth Effect (Exp#3 E3 Exp (laser treated)): 0.44 | CFU/ml (Exp#3 E3 Exp (laser treated)): 7.08E+07 CFU/ml | AVG (Exp#3 E3 Exp (laser treated)): 23.6 CFU | CFU (Exp#3 E3 Exp (laser treated)): 15 CFU and 24 CFU and 26 CFU and 27 CFU | Laser Effect (+M) (Exp#3 F3, laser Exp / Cont): 0.18 | Meth Effect (Exp#3 F3 Cont (no laser)): 0.73 | CFU/ml (Exp#3 F3 Cont (no laser)): 1.60E+08 CFU/ml | AVG (Exp#3 F3 Cont (no laser)): 53.2 CFU | Meth Effect (Exp#3 F3 Exp (laser treated)): 0.35 | CFU/ml (Exp#3 F3 Exp (laser treated)): 2.94E+07 CFU/ml | AVG (Exp#3 F3 Exp (laser treated)): 9.8 CFU | Laser Effect (+M) (Exp#3 G3, laser Exp / Cont): 0.12 | Meth Effect (Exp#3 G3 Cont (no laser)): 1.17 | CFU/ml (Exp#3 G3 Cont (no laser)): 2.03E+08 CFU/ml | AVG (Exp#3 G3 Cont (no laser)): 67.6 CFU | Meth Effect (Exp#3 G3 Exp (laser treated)): 0.37 | CFU/ml (Exp#3 G3 Exp (laser treated)): 2.52E+07 CFU/ml | AVG (Exp#3 G3 Exp (laser treated)): 8.4 CFU | Laser Effect (+M) (Exp#3 H3, laser Exp / Cont): 0.11 | Meth Effect (Exp#3 H3 Cont (no laser)): 1.04 | CFU/ml (Exp#3 H3 Cont (no laser)): 2.26E+08 CFU/ml | AVG (Exp#3 H3 Cont (no laser)): 75.2 CFU | Meth Effect (Exp#3 H3 Exp (laser treated)): 0.35 | CFU/ml (Exp#3 H3 Exp (laser treated)): 2.52E+07 CFU/ml | AVG (Exp#3 H3 Exp (laser treated)): 8.4 CFU | synergistic effect of NIMELS with antibiotic in growth inhibition of MRSA colonies (FIG. 17): being potentiated by sub-lethal NIMELS dosimetry
